Legend:
CT26 lung metastasis = assay: In vivo lung metastasis assay, CT26 colon carcinoma; design: species or system BALB/c mice; settings: for Tumor protection in IFN-γ knockout mice: IFN-γ−/− BALB/c, 50 pmoles, FIG. 9A; for Effect of NOS inhibition (L-NAME vs D-NAME) on tumor protection: WT mice, 50 pmoles glycolipid, 0.2 mg L-NAME i.p., FIG. 6, 10A; for Rank order of tumor protection: dose of 50 pmoles
Experimental: In vivo lung metastasis assay. 5×10^5 CT26 cells in 0.2 ml PBS were injected i.v. into the tail vein. Glycolipid or vehicle control (0.00025% Tween 20) was injected i.p. (in 0.2 ml PBS) within one hour after tumor challenge. Mice were sacrificed 12-16 days after tumor challenge, and lungs were stained and fixed and metastases were enumerated as previously described (Park, J. M., et al., International J. of Cancer, 114:80-87 (2004)). The same protocol was used for the B16F10 cell line, except that lungs were perfused with PBS instead of ink before removal.
For CD8^+T and NK cell depletion, mice were treated with anti-CD8 (200 μg/injection), anti-asialo GM1 (25 μl/injection), or control antibodies 1 day prior to tumor challenge, the day of challenge, and 5 and 10 days following tumor challenge. CD8^+T and NK cell depletion of >90% was confirmed by flow cytometric staining for CD8 (clone 53-6.7, BD Biosciences, Rockville, Md.) and pan-NK cell marker (clone DX5, eBioscience, San Diego, Calif.) at the conclusion of the experiment. For Gr-1^+ cell depletion, mice were injected i.p. with 100, 50, or 1 μg anti-Gr-1 antibody, 16 and 40 hours after tumor challenge. CD11b^+Gr-1^high cell depletion of >99% and CD11b^+Gr-1^intermediate cell depletion of >80% by 100 μg of anti-Gr-1 antibodies, was confirmed by flow cytometric staining for CD11b (clone M1/70, eBioscience), Gr-1 (clone RB6-8C5, BD Biosciences), Ly-6C (clone AL-21, BD Biosciences) and Ly6G. (clone 1A8, BD Biosciences). Where indicated, mice received 0.2 mg L-NAME or D-NAME i.p. twice per day on the day of tumor challenge, the day after tumor challenge, and once daily for 2 weeks after tumor injection. Blockade of TNF-α was achieved by administration of 100 μg of etanercept every other day, beginning immediately following tumor challenge, per the method of Fichtner-Feigl, S., et al., Cancer Res., 68:3467-3475 (2008). For PPARγ inhibition, mice were treated 0.15 mg/ml GW9662 (200 μL i.p.) or vehicle control (0.5% DMSO in PBS) immediately following tumor challenge, and then 30 minutes prior to glycolipid administration, via the method of Coste, A., et al., J. Immunol., 180:4939-4947 (2008).

BALB/c splenocytes = assay: In vitro cytokine assay (ELISA); format: cell-based, BALB/c mice; settings: 48 hours, ELISA; for IFN-γ production in vitro: FIG. 7A; for IL-4 production in vitro: FIG. 7B; for IL-13 production in vitro: FIG. 7C
Experimental: In vitro cytokine assay. Splenocytes (8×10^5/well of 96 well plates) from BALB/c mice were stimulated with glycolipid or solvent control for 48 hours. Supernatants were collected, and the concentration of IFN-γ, IL-4, or IL-13 was determined by ELISA.

[1] = test system: IFN-γ, IL-4, IL-13, IL-12 (p70), and TNF-α in plasma; assay: In vivo cytokine assay (plasma, multiplex); design: species or system BALB/c mice; settings: 0-24 hours
Experimental: FIGS. 8A-8E show graphs where the cytokine production induced by the glycolipid panel was tested in vivo. BALB/c mice were challenged with CT26 (5×10^5) i.v. followed by 50 pmoles of glycolipid or vehicle control i.p. at time 0. Mice were bled retroorbitally at 0, 3, 6, 12, and 24 hours, and the amount of IFN-γ (8A), TNF-α (8B), IL-4 (8C), IL-12 (p70) (8D), and IL-13 (8E) in plasma was determined. Each data point represents mean±SD of triplicates. […] Little cytokine production was detected following OCH and AH04-2 administration. β-ManCer induced very little cytokine production except for some IL-12 and TNF-α.
In vivo cytokine assay. The concentration of IFN-γ, IL-4, IL-13, IL-12 (p70), and TNF-α in plasma samples was determined by MILLIPLEX cytokine multiplex immunoassay kit (Millipore, Billerica, Mass.) using a Bio-Plex system (Bio-Rad, Hercules, Calif.) according to manufacturer's instructions.

iNKT cells = assay: In vitro iNKT activation (CFSE dilution, splenocytes); format: cell-based, mice; settings: 3.5-day stimulation of mouse splenocytes; FIG. 3
Experimental: In vitro iNKT activation. Splenocytes were harvested from mice (n=3), and erythrocytes were depleted with ACK Lysis Buffer (Lonza, Walkersville, Md.). Cells were labeled with 0.1 μM CFSE (Invitrogen, Carlsbad, Calif.) for 15 minutes at room temperature. Labeled cells (4×10^6 cells/well of 24-well plate) were stimulated for 3.5 days with glycolipid or vehicle control. At the end of the culture, cells were harvested and stained with PBS57-loaded CD1d tetramer (NIH Tetramer Facility) and anti-CD3 (clone 145-2C11, Biolegend). The fluorescence of stained cells was measured by FACSCalibur (BD Biosciences), and data were analyzed by Flowjo (Tree Star, Inc., Ashland, Oreg.).

activated NKT cells = assay: Anergy: re-stimulation of splenocytes one month after in vivo treatment; design: species or system mice
Experimental: FIG. 13A is a graph showing splenocyte proliferation measured by ^3H-thymidine incorporation during the final 8 hours of a 72-hour culture after being re-stimulated in culture. Pretreatment with α-GalCer induces anergy but pretreatment with β-ManCer induces much less anergy.
FIG. 13B is a graph showing the amount of IFN-γ produced by the splenocyte culture after 48 hours of re-stimulation.
It is known that α-GalCer induces strong anergy of activated NKT cells for over a month after in vivo stimulation. […] Mice were treated with α-GalCer, β-ManCer, or vehicle, and one month later, splenocytes were re-stimulated, and the degree of activation was measured by proliferation and IFN-γ production.

| SMILES | Tumor protection in IFN-γ knockout mice (CT26 lung metastasis) | Effect of NOS inhibition (L-NAME vs D-NAME) on tumor protection (CT26 lung metastasis) | Rank order of tumor protection (CT26 lung metastasis; FIG. 2D) | IFN-γ production in vitro (BALB/c splenocytes) | IL-4 production in vitro (BALB/c splenocytes) | IL-13 production in vitro (BALB/c splenocytes) | IL-4 in plasma ([1]; 50 pmoles i.p., FIG. 8C) | IL-13 in plasma ([1]; 50 pmoles i.p., FIG. 8E) | Cytokine production in vivo (overall) ([1]; 50 pmoles i.p.) | Effect of TNF-α blockade (TNF-αR-Fc, etanercept) on protection (CT26 lung metastasis; 100 μg etanercept every other day, FIG. 10C) | Potency relative to β-ManCer (CT26 lung metastasis; results at the 5 pmole dose, FIG. 2D) | Proliferation of iNKT cells (CFSE dilution) (iNKT cells) [%] | IFN-γ in plasma ([1]; 50 pmoles i.p. after CT26 i.v., FIG. 8A) | IFN-γ production on re-stimulation, compared to cells from vehicle-treated mice (activated NKT cells; 48 hours of re-stimulation, FIG. 13B) | Splenocyte proliferation on re-stimulation, compared to cells from vehicle-treated mice (activated NKT cells; re-stimulation with α-GalCer or β-ManCer, 3H-thymidine, 72-hour culture, FIG. 13A) |
| --- | --- | --- | --- | --- | --- | --- | --- | --- | --- | --- | --- | --- | --- | --- | --- |
| CCCCC/C=C\C/C=C\CCCCCCCCCC(=O)N[C@@H](CO[C@H]1O[C@H](CO)[C@H](O)[C@H](O)[C@H]1O)[C@H](O)[C@H](O)CCCCCCCCCCCCCC [C20:2, reference compound] | completely failed to induce any tumor protection | no effect | similarly protective | lower IFN-γ level | higher amounts | higher amounts | increased | increased | – | – | – | – | – | – | – |
| CCCCCCCCCCCCCCCCCCCCCCCC(=O)N[C@@H](COC1OC(CO)C(O)C(O)C1O)[C@H](O)[C@H](O)CCCCC (some centres unmarked) [OCH] | – | – | significantly less tumor killing | lower IFN-γ level | higher amounts | higher amounts | – | – | Much less cytokine production | – | – | – | – | – | – |
| CCCCCCCCCCCCCCCCCCCCCCCCCC(=O)N[C@@H](CO[C@H]1O[C@H](CO)[C@H](O)[C@H](O)[C@H]1O)[C@H](O)[C@H](O)CCCCCCCCCCCCCC [α-GalCer, α-galactosylceramide, reference compound] | completely failed to induce any tumor protection | no effect | greatest protection | greatest IFN-γ production | – | – | – | – | – | no effect | about a log more potent | 44 | most IFN-γ | severely suppressed | severely suppressed |
